Measured values from ChEMBL document CHEMBL1149183, “Novel benzo[1,4]diazepin-2-one derivatives as endothelin receptor antagonists” (J Med Chem, 2004).

Key:
Endothelin-1 receptor = target: T1, Endothelin-1 receptor (Homo sapiens, UniProt P25101); assay: Antagonist activity towards human recombinant Endothelin A receptor expressed in chinese hamster ovary (CHO) cells determined using [125I]ET1 as radioligand; type: functional, cell-based
T1 sequence (P25101 whole entry): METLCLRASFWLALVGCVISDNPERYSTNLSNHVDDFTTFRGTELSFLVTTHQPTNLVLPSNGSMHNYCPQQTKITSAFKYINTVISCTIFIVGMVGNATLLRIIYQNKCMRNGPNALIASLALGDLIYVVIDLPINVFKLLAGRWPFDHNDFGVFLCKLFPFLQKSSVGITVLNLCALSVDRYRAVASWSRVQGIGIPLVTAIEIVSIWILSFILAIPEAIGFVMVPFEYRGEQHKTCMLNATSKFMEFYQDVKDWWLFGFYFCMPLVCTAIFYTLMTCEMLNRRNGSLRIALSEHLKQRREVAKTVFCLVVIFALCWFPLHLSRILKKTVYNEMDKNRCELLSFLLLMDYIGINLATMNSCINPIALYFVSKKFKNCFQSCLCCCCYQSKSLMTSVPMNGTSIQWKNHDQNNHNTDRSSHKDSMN

Endothelin receptor = target: T2, Endothelin receptor (Rattus norvegicus, UniProt P26684+P21451); assay: Inhibitory potency at native endothelin A and endothelin B receptors by inhibiting endothelin-1 contractions of rat aortic rings; type: functional
T2 sequence (P26684 whole entry): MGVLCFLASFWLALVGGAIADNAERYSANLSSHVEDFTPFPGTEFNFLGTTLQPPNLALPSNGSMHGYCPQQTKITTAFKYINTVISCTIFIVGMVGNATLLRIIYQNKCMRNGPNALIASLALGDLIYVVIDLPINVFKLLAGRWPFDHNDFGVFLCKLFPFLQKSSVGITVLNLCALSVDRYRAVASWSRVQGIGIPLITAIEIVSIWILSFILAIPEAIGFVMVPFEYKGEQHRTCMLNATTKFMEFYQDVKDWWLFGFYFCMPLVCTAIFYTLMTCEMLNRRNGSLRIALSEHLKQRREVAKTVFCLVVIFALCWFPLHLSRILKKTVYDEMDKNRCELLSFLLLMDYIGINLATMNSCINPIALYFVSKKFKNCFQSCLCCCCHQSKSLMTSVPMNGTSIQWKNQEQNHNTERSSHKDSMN
T2 sequence (P21451 whole entry): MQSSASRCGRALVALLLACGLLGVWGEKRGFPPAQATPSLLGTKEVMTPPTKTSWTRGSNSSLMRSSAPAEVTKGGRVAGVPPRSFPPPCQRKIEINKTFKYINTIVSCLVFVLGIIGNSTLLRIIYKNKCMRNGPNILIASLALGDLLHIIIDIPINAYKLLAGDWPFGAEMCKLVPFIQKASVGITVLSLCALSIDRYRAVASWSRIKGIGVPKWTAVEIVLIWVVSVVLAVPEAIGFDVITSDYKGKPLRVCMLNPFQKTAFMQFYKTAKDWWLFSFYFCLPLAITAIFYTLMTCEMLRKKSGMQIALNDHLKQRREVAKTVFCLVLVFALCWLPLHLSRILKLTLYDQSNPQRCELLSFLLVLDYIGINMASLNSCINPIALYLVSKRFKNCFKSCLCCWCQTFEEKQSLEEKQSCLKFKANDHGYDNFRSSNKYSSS

[1] = target: T3, Endothelin receptor type B (Homo sapiens, UniProt P24530); assay: Antagonist activity towards human recombinant Endothelin B receptor expressed in chinese hamster ovary (CHO) cells determined using [125I]ET1 as radioligand; type: functional, cell-based
T3 sequence (P24530 whole entry): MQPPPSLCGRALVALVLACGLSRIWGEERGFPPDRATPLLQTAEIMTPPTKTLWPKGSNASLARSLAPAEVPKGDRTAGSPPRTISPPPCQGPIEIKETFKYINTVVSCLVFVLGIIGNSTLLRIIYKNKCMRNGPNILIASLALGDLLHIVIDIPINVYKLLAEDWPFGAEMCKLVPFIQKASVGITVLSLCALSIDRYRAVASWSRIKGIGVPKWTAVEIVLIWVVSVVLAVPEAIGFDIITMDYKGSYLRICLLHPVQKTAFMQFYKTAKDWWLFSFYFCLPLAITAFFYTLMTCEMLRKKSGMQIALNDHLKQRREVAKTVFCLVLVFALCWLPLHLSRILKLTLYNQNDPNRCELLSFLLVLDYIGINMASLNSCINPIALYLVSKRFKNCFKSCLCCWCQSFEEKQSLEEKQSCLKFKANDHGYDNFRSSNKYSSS

IC50 (Endothelin-1 receptor) [µM]	pA2 (Endothelin receptor)	IC50 [1] [µM]	SMILES
0.0066	6.99	0.0656	Cc1cc(C)nc(O[C@H](C(=O)O)[C@@]2(c3ccccc3)NCC(=O)N(Cc3nn[nH]n3)c3ccccc32)n1 (racemic)
0.0035	7.22	0.0331	Cc1cc(C)nc(O[C@H](C(=O)O)[C@@]2(c3ccccc3)NCC(=O)N(Cc3ccccc3F)c3ccccc32)n1 (racemic)
0.0035	7.84	0.0111	CCCCc1ccc(CN2C(=O)CN[C@](c3ccccc3)([C@H](Oc3nc(C)cc(C)n3)C(=O)O)c3ccccc32)cc1 (racemic)
0.0018	8.55	0.0066	Cc1cc(C)nc(O[C@H](C(=O)O)[C@@]2(c3ccccc3)NCC(=O)N(Cc3c(Cl)cccc3Cl)c3ccccc32)n1 (racemic)
0.0068	7.87	0.0288	Cc1cc(C)nc(O[C@H](C(=O)O)[C@@]2(c3ccccc3)NCC(=O)N(Cc3c(F)c(F)c(F)c(F)c3F)c3ccccc32)n1 (racemic)
–	7.08	0.0224	COc1ccc(CN2C(=O)CN[C@](c3ccccc3)([C@H](Oc3nc(C)cc(C)n3)C(=O)O)c3ccccc32)cc1 (racemic)
0.0064	7.32	0.0474	Cc1cc(C)nc(O[C@H](C(=O)O)[C@@]2(c3ccccc3)NCC(=O)N(Cc3ccccc3)c3ccccc32)n1 (racemic)
0.003	7.28	0.0868	COc1ccc(CN2C(=O)CN[C@](c3cccc(-c4ccccc4)c3)([C@H](Oc3nc(C)cc(C)n3)C(=O)O)c3ccccc32)cc1 (racemic)
0.0039	7.46	0.0215	Cc1cc(C)nc(O[C@H](C(=O)O)[C@@]2(c3ccccc3)NCC(=O)N(CCc3ccccc3)c3ccccc32)n1 (racemic)
0.0073	6.53	0.0332	COc1ccc(CN2C(=O)CN[C@](c3ccc(F)c(C)c3)([C@H](Oc3nc(C)cc(C)n3)C(=O)O)c3ccccc32)cc1 (racemic)
0.0065	7.93	0.0497	Cc1cc(C)nc(O[C@H](C(=O)O)[C@@]2(c3ccccc3)NCC(=O)N(Cc3ccc(F)c(F)c3F)c3ccccc32)n1 (racemic)
–	7.8	0.0109	Cc1cc(C)nc(O[C@H](C(=O)O)[C@@]2(c3ccccc3)NCC(=O)N(Cc3c(F)cccc3Cl)c3ccccc32)n1 (racemic)
0.0059	7.46	0.0497	Cc1cc(C)nc(O[C@H](C(=O)O)[C@@]2(c3ccccc3)NCC(=O)N(Cc3ccc(F)cc3)c3ccccc32)n1 (racemic)
0.0067	8.1	0.0155	Cc1cc(C)c(CN2C(=O)CN[C@](c3ccccc3)([C@H](Oc3nc(C)cc(C)n3)C(=O)O)c3ccccc32)c(C)c1 (racemic)
0.0037	–	0.0185	Cc1cc(C)nc(O[C@H](C(=O)O)[C@@]2(c3ccccc3)NCC(=O)N(Cc3cccc(F)c3F)c3ccccc32)n1 (racemic)
0.0986	–	0.0749	Cc1cc(C)nc(O[C@H](C(=O)O)[C@@]2(c3ccccc3)NCC(=O)N(Cc3ccccc3OC(F)(F)F)c3ccccc32)n1 (racemic)
0.0025	7.59	0.0322	Cc1cc(C)nc(O[C@H](C(=O)O)[C@@]2(c3ccccc3)NCC(=O)N(Cc3ccc(OC(F)(F)F)cc3)c3ccccc32)n1 (racemic)
0.0118	–	0.0253	Cc1cc(C)nc(O[C@H](C(=O)O)[C@@]2(c3ccccc3)NCC(=O)N(Cc3cc(F)c(F)c(F)c3)c3ccccc32)n1 (racemic)

IC50 (Endothelin-1 receptor) [µM]	pA2 (Endothelin receptor)	IC50 [1] [µM]	SMILES
0.101	–	3.15	O=C(O)[C@@H](Oc1cccc(Cl)c1)[C@@]1(c2ccccc2)NCC(=O)N(Cc2c(Cl)cccc2Cl)c2ccccc21 (racemic)
0.029	–	0.745	Cc1cccc(O[C@H](C(=O)O)[C@@]2(c3ccccc3)NCC(=O)N(Cc3c(Cl)cccc3Cl)c3ccccc32)c1 (racemic)
0.006	–	0.109	Cc1cc(C)nc(O[C@H](C(=O)O)[C@@]2(c3ccccc3)NCC(=O)N(Cc3ccc(F)cc3F)c3ccccc32)n1 (racemic)
> 10	–	> 10	O=C(O)[C@@H](Oc1ccccc1Cl)[C@@]1(c2ccccc2)NCC(=O)N(Cc2c(Cl)cccc2Cl)c2ccccc21 (racemic)
0.443	–	8.03	COc1cc(OC)cc(O[C@H](C(=O)O)[C@@]2(c3ccccc3)NCC(=O)N(C)c3cc(OC)c(OC)cc32)c1 (racemic)
0.0067	–	0.0268	Cc1cc(C)nc(O[C@H](C(=O)O)[C@@]2(c3ccccc3)NCC(=O)N(Cc3cccc(F)c3)c3ccccc32)n1 (racemic)
0.0234	–	0.473	COc1cc(OC)nc(O[C@H](C(=O)O)[C@@]2(c3ccccc3)NCC(=O)N(C)c3ccccc32)n1 (racemic)
0.0079	7.69	0.0365	CCCCc1cccc([C@]2([C@H](Oc3nc(C)cc(C)n3)C(=O)O)NCC(=O)N(Cc3ccc(OC)cc3)c3ccccc32)c1 (racemic)
0.0011	7.83	0.0177	Cc1cc(C)nc(O[C@H](C(=O)O)[C@@]2(c3ccccc3)NCC(=O)N(Cc3c(F)cccc3F)c3ccccc32)n1 (racemic)
0.0237	6.71	0.0399	CCCCCCN1C(=O)CN[C@](c2ccccc2)([C@H](Oc2nc(C)cc(C)n2)C(=O)O)c2ccccc21 (racemic)
0.102	–	0.534	Cc1cc(C)nc(O[C@H](C(=O)O)[C@@]2(c3ccccc3)NCC(=O)N(Cc3ccc(-c4ccccc4)cc3)c3ccccc32)n1 (racemic)
0.126	–	0.743	Cc1cc(C)nc(O[C@H](C(=O)O)[C@@]2(c3ccccc3)NCC(=O)N(CCN3CCOCC3)c3ccccc32)n1 (racemic)
5.92	–	> 10	COc1ccccc1O[C@H](C(=O)O)[C@@]1(c2ccccc2)NCC(=O)N(Cc2c(Cl)cccc2Cl)c2ccccc21 (racemic)
0.355	–	0.0736	CCCCC[C@]1([C@H](Oc2nc(C)cc(C)n2)C(=O)O)NCC(=O)N(Cc2ccc(OC)cc2)c2ccccc21 (racemic)
> 10	–	> 10	Cc1ccccc1O[C@H](C(=O)O)[C@@]1(c2ccccc2)NCC(=O)N(Cc2c(Cl)cccc2Cl)c2ccccc21 (racemic)
0.0249	–	0.241	COc1ccc(CN2C(=O)CN[C@](c3cccc(C(F)(F)F)c3)([C@H](Oc3nc(C)cc(C)n3)C(=O)O)c3ccccc32)cc1 (racemic)
> 10	–	> 1	Cc1ccc(C)c(O[C@H](C(=O)O)[C@@]2(c3ccccc3)NCC(=O)N(Cc3c(Cl)cccc3Cl)c3ccccc32)c1 (racemic)

SMILES	IC50 (Endothelin-1 receptor) [µM]	pA2 (Endothelin receptor)	IC50 [1] [µM]
Cc1cc(C)nc(O[C@H](C(=O)O)[C@@]2(c3ccccc3)NCc3nnc(CC(=O)O)n3-c3ccccc32)n1 (racemic)	0.0588	–	0.261
Cc1cc(C)nc(O[C@H](C(=O)O)[C@@]2(c3ccccc3)NCC(=O)N(CC3CC3)c3ccccc32)n1 (racemic)	0.0073	–	0.0878
Cc1cc(C)nc(O[C@H](C(=O)O)[C@@]2(c3ccccc3)NCc3c(C(=O)O)nc(C)n3-c3ccccc32)n1 (racemic)	0.604	–	0.711
